Literature values, collected in patent US20220313139A1, “APPARATUSES AND METHODS FOR IDENTIFICATION AND TREATMENT OF PATIENTS RESPONSIVE TO ANTIPSYCHOTIC AGENT THERAPY” (priority 2019, published 2022).

Columns and labels:
[1] = in humans
patients [2] = conditions: early phase II monotherapy trial
patients [3] = conditions: clinical studies, halted

| oral absorption and bioavailability [1] | Compound | dosage shown to be efficacious (patients [2]) | efficacy versus placebo as determined with PANSS total scores (patients [3]) |
| --- | --- | --- | --- |
| low oral absorption and bioavailability | N[C@@]1(C(=O)O)CS(=O)(=O)[C@H]2[C@H](C(=O)O)[C@H]21 [pomaglumetad] | – | – |
| – | CSCC[C@H](N)C(=O)N[C@@]1(C(=O)O)CS(=O)(=O)[C@H]2[C@H](C(=O)O)[C@H]21 [poma, Pomaglumetad methionil] | 40 mg BID | not significantly more efficacious than the placebo |
